Source: PubChem BioAssay AID330 (DTP/NCI, 2004)
“And” between values parts separate entries of the source, which are not always exact repeats. Equal values may be shown once. Inconclusive results and toxic doses are left out. Rule for the calls: active = survival T/C of 150% or more; inactive = T/C below 125% in these data.

Test system: P388 leukemia ip, CD2F1 mice, survival T/C
Assay: NCI In Vivo Anticancer Drug Screen. Data for tumor model P388 Leukemia (intraperitoneal) in CD2F1 (CDF1) mice
Settings: endpoint: median survival time, higher = longer survival
Procedure, shortened: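 Mice carrying the transplanted tumor received test compound or vehicle. Survival was recorded in each group, and the value is the treated-group measurement divided by that of the vehicle-treated control group.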

[1] = dose: 50.0 mg/kg/injection, schedule: Q01DX005 (ip), vehicle: Klucel (hydroxypropylcellulose) (HPC)
[2] = dose: 100.0 mg/kg/injection, schedule: Q01DX005 (ip), vehicle: Klucel (hydroxypropylcellulose) (HPC)
[3] = dose: 200.0 mg/kg/injection, schedule: Q01DX005 (ip), vehicle: Klucel (hydroxypropylcellulose) (HPC)
[4] = dose: 25.0 mg/kg/injection, schedule: Q04DX003 (ip), vehicle: saline with Tween-80
[5] = dose: 50.0 mg/kg/injection, schedule: Q04DX003 (ip), vehicle: saline with Tween-80
[6] = dose: 6.25 mg/kg/injection, schedule: Q01DX009 (ip), vehicle: saline with Tween-80
[7] = dose: 12.5 mg/kg/injection, schedule: Q01DX009 (ip), vehicle: saline with Tween-80
[8] = dose: 25.0 mg/kg/injection, schedule: Q01DX009 (ip), vehicle: saline with Tween-80
[9] = dose: 50.0 mg/kg/injection, schedule: Q01DX009 (ip), vehicle: Klucel (hydroxypropylcellulose) (HPC)
[10] = dose: 60.0 mg/kg/injection, schedule: Q01DX005 (ip), vehicle: saline with Tween-80
[11] = dose: 120.0 mg/kg/injection, schedule: Q01DX005 (ip), vehicle: saline with Tween-80
[12] = dose: 240.0 mg/kg/injection, schedule: Q01DX005 (ip), vehicle: saline with Tween-80
[13] = dose: 100.0 mg/kg/injection, schedule: Q04DX003 (ip), vehicle: saline with Tween-80
[14] = dose: 200.0 mg/kg/injection, schedule: Q04DX003 (ip), vehicle: saline with Tween-80
[15] = dose: 400.0 mg/kg/injection, schedule: Q04DX003 (ip), vehicle: saline with Tween-80
[16] = dose: 50.0 mg/kg/injection, schedule: Q01DX005 (ip), vehicle: saline with Tween-80
[17] = dose: 100.0 mg/kg/injection, schedule: Q01DX005 (ip), vehicle: saline with Tween-80
[18] = dose: 100.0 mg/kg/injection, schedule: Q01DX009 (ip), vehicle: saline with Tween-80
[19] = dose: 200.0 mg/kg/injection, schedule: Q01DX009 (ip), vehicle: saline with Tween-80

Measured: T/C

CC1OC(OC2C(Oc3cc(O)c4c(c3)O[C@H](c3ccc(O)cc3)CC4=O)OC(CO)C(O)C2O)C(O)C(O)C1O (stereo partly drawn)
inactive: [1] 97 % of control | [2] 97 % of control | [3] 101 % of control

c1c(NC2=NCCO2)cc2c3c1CCCN3CCC2
inactive: dose: 12.5 mg/kg/injection, schedule: Q04DX003 (ip), vehicle: saline with Tween-80 90 % of control | [4] 100 % of control | [5] 109 % of control

OCN(CO)c1nc(CCC(Cl)(Cl)Cl)nc(N(CO)CO)n1
inactive: dose: 12.5 mg/kg/injection, schedule: Q01DX009 (ip), vehicle: distilled water + Tween-80 96 % of control | dose: 25.0 mg/kg/injection, schedule: Q01DX009 (ip), vehicle: distilled water + Tween-80 99 % of control | dose: 50.0 mg/kg/injection, schedule: Q01DX009 (ip), vehicle: distilled water + Tween-80 114 % of control | dose: 100.0 mg/kg/injection, schedule: Q01DX009 (ip), vehicle: distilled water + Tween-80 116 % of control | dose: 200.0 mg/kg/injection, schedule: Q01DX009 (ip), vehicle: distilled water + Tween-80 89 % of control

ONc1ccccc1C(F)(F)F
inactive: dose: 50.0 mg/kg/injection, schedule: Q01DX009 (ip), vehicle: saline 97 % of control | dose: 100.0 mg/kg/injection, schedule: Q01DX009 (ip), vehicle: saline 95 % of control

C1CCC2(CC1)NN=C1CCCCC12 (stereo not drawn)
inactive: dose: 12.5 mg/kg/injection, schedule: Q01DX009 (ip), vehicle: other 101 % of control | dose: 25.0 mg/kg/injection, schedule: Q01DX009 (ip), vehicle: other 110 % of control | dose: 50.0 mg/kg/injection, schedule: Q01DX009 (ip), vehicle: other 104 % of control | dose: 100.0 mg/kg/injection, schedule: Q01DX009 (ip), vehicle: other 106 % of control | dose: 200.0 mg/kg/injection, schedule: Q01DX009 (ip), vehicle: other 116 % of control

CN1/C(=C/C=C/C(I)=C/C=C/C2=[N+](C)c3ccccc3C2(C)C)C(C)(C)c2ccccc21
inactive: dose: 3.13 mg/kg/injection, schedule: Q01DX009 (ip), vehicle: saline with Tween-80 121 % of control | [6] 123 % of control | [7] 120 % of control | [8] 124 % of control

O=S(=O)(NCCSSCCNS(=O)(=O)c1cccc2cccnc12)c1cccc2cccnc12
inactive: [9] 100 % of control | dose: 100.0 mg/kg/injection, schedule: Q01DX009 (ip), vehicle: Klucel (hydroxypropylcellulose) (HPC) 89 % of control | dose: 200.0 mg/kg/injection, schedule: Q01DX009 (ip), vehicle: Klucel (hydroxypropylcellulose) (HPC) 91 % of control

Cc1ccc(-c2nc3n(c2/C=N/NS(=O)(=O)c2ccc(C)cc2)CCS3)cc1
inactive: dose: 100.0 mg/kg/injection, schedule: Q01DX001 (ip), vehicle: Klucel (hydroxypropylcellulose) (HPC) 100 % of control | dose: 200.0 mg/kg/injection, schedule: Q01DX001 (ip), vehicle: Klucel (hydroxypropylcellulose) (HPC) 93 % of control | dose: 400.0 mg/kg/injection, schedule: Q01DX001 (ip), vehicle: Klucel (hydroxypropylcellulose) (HPC) 91 % of control

CCCCc1c(OCC)cc2n(CC)c3ccccc3n2c1=O
inactive: [10] 107 % of control | [11] 94 % of control | [12] 94 % of control

CC(C)=CCSc1ccccc1
inactive: dose: 100.0 mg/kg/injection, schedule: Q04DX002 (ip), vehicle: Klucel (hydroxypropylcellulose) (HPC) 104 % of control | dose: 200.0 mg/kg/injection, schedule: Q04DX002 (ip), vehicle: Klucel (hydroxypropylcellulose) (HPC) 106 % of control | dose: 400.0 mg/kg/injection, schedule: Q04DX002 (ip), vehicle: Klucel (hydroxypropylcellulose) (HPC) 109 % of control

OCc1cc(-c2ccc(Cl)cc2)nc2c(C(F)(F)F)cccc12
inactive: [13] 100 % of control | [14] 111 % of control | [15] 92 % of control

Nc1ccc2nc3ccc(O)cc3nc2c1
inactive: [1] 103 % of control | [2] 108 % of control | [3] 105 % of control

Cc1ncn2ncnc2c1C
inactive: [4] 103 % of control | [5] 104 % of control | [13] 101 % of control and 93 % of control

CC(/C=C/c1ccc2c(c1)OCO2)=N\NC(N)=O
inactive: [16] 100 % of control | [17] 97 % of control | dose: 200.0 mg/kg/injection, schedule: Q01DX005 (ip), vehicle: saline with Tween-80 95 % of control

N#Cc1ccccc1N=Nc1ccccc1
inactive: dose: 50.0 mg/kg/injection, schedule: Q01DX009 (ip), vehicle: saline + alcohol 94 % of control | dose: 100.0 mg/kg/injection, schedule: Q01DX009 (ip), vehicle: saline + alcohol 95 % of control | dose: 200.0 mg/kg/injection, schedule: Q01DX009 (ip), vehicle: saline + alcohol 97 % of control

COc1ccc(CCNS(=O)(=O)c2c(C)c(C)c(C)c(C)c2C)cc1OC
inactive: [1] 93 % of control | [2] 88 % of control

COc1ccc(N=C2SCC(=O)N2NC(=O)CN2C(=O)c3ccccc3C2=O)cc1
inactive: dose: 100.0 mg/kg/injection, schedule: Q01DX001 (ip), vehicle: saline with Tween-80 99 % of control | dose: 200.0 mg/kg/injection, schedule: Q01DX001 (ip), vehicle: saline with Tween-80 97 % of control | dose: 400.0 mg/kg/injection, schedule: Q01DX001 (ip), vehicle: saline with Tween-80 104 % of control

O=C(Nc1cccc(Cl)c1Cl)c1cc(/C=C/c2ccc([N+](=O)[O-])cc2)on1
inactive: dose: 30.0 mg/kg/injection, schedule: Q01DX005 (ip), vehicle: saline with Tween-80 95 % of control | [10] 91 % of control and 96 % of control | [11] 87 % of control and 95 % of control | [12] 97 % of control

N#CC(C#N)=C(C#N)C#N
inactive: [13] 103 % of control | [14] 103 % of control

Nc1ccccc1SC1=C(Cl)C(=O)c2ccccc2C1=O
inactive: [6] 95 % of control | [7] 94 % of control | [8] 103 % of control

CCCCOCC(=O)OCCCC
inactive: [18] 109 % of control | [13] 110 % of control | [19] 118 % of control | [14] 115 % of control | dose: 400.0 mg/kg/injection, schedule: Q01DX009 (ip), vehicle: saline with Tween-80 95 % of control | [15] 100 % of control

O=c1c2cc(O)c(O)cc2oc2cc(O)c(C3OC(CO)C(O)C(O)C3O)c(O)c12 (stereo not drawn)
inactive: dose: 100.0 mg/kg/injection, schedule: Q01DX001 (ip), vehicle: saline 101 % of control | dose: 400.0 mg/kg/injection, schedule: Q01DX001 (ip), vehicle: saline 101 % of control

NC(=O)C1CCN(Cc2c[nH]c3ccccc23)CC1
inactive: [8] 104 % of control | dose: 50.0 mg/kg/injection, schedule: Q01DX009 (ip), vehicle: saline with Tween-80 100 % of control | [18] 104 % of control | [19] 102 % of control

COc1cc2c(cc1OC)C(C)(C)N(Cc1ccccc1)C(C)C2(C)C (stereo not drawn)
inactive: dose: 3.12 mg/kg/injection, schedule: Q01DX009 (ip), vehicle: Klucel (hydroxypropylcellulose) (HPC) 105 % of control | dose: 6.25 mg/kg/injection, schedule: Q01DX009 (ip), vehicle: Klucel (hydroxypropylcellulose) (HPC) 105 % of control | dose: 12.5 mg/kg/injection, schedule: Q01DX009 (ip), vehicle: Klucel (hydroxypropylcellulose) (HPC) 114 % of control | dose: 25.0 mg/kg/injection, schedule: Q01DX009 (ip), vehicle: Klucel (hydroxypropylcellulose) (HPC) 107 % of control | [9] 112 % of control

CC1(C)O[C@@H]2C[C@H]3[C@@H]4CCC5=CC(=O)C=C[C@]5(C)[C@@]4(F)[C@@H](O)C[C@]3(C)[C@]2(C(=O)CO)O1
inactive: [7] 109 % of control | [8] 109 % of control

O=C(c1ccccc1)N1C2C=C(c3ccccc3)CC1CC2 (stereo not drawn)
inactive: dose: 100.0 mg/kg/injection, schedule: Q04DX003 (ip), vehicle: Klucel (hydroxypropylcellulose) (HPC) 111 % of control | dose: 200.0 mg/kg/injection, schedule: Q04DX003 (ip), vehicle: Klucel (hydroxypropylcellulose) (HPC) 97 % of control | dose: 400.0 mg/kg/injection, schedule: Q04DX003 (ip), vehicle: Klucel (hydroxypropylcellulose) (HPC) 94 % of control

CC(=O)C[n+]1ccc(C)cc1Sc1ccccc1C
inactive: dose: 25.0 mg/kg/injection, schedule: Q01DX005 (ip), vehicle: saline with Tween-80 101 % of control and 103 % of control | [16] 111 % of control and 113 % of control and 122 % of control | [17] 118 % of control and 120 % of control
